Assay results published in US9434701B2, “Aminoquinoxaline derivatives for treatment of neurodegenerative diseases” (CENTRE NATIONAL DE LA RECHERCHE SCIENTIFIQUE (CNRS), priority 2011, dated 2016).

Key:
[1] = influence of time before euthanasia, per os route: brain extract and plasma concentration; type: in vivo, C57BL\6J mice
Method: This study was done on C57BL\6J (instead of RjOrl:SWISS) mice treated with compound 4bc by IP or per os.
Mice treated per os received a treatment of 150 mg/kg to 10 mL/kg of a solution of compound 4bc over 5 days comprising twice daily administrations for 4 days and a once daily administration the last day.

[2] = IP study in rats: brain extract and plasma concentration; type: in vivo
Method: The kinetics in mouse brain and plasma of compound 4bc after IP administration are also shown in FIG. 8. • Another study was done in rats treated by IP. These rats received a treatment of 20 or 45 mg/kg at 10 mL/kg of a solution of compound 4bc over 2 days comprising 2 IP injections the first day and 1 IP injection the second day.

[3] = passage of the blood-brain barrier, per os study: brain extract by HPLC-MS/MS; type: in vivo, Rj Orl: SWISS mice; details: per os 150 mg/kg twice daily 4 days + last treatment day 5; euthanized 4 h to 6 h 40 after last treatment
Method: Male Rj Orl: SWISS, mice, approximately 5 weeks old and weighing between 20 and 24 g at arrival (R Janvier Breeding Center, France) were kept in the animal room at constant temperature (22±1° C.) and controlled humidity (55±20%), with a 12-hour light/dark cycle (8:00 a.m.-8:00 p.m.). During the acclimation and study period, the mice had free access to food and water. All the experiments were conducted in compliance with the conditions of decree 2001-464 of May 29, 2001 relative to animal experimentation.
The solution of compound 4bc at the concentration of 15.0 g/L to be administered was prepared in the following carrier: 0.5% Tween 80+99.5% carboxymethyl cellulose at 1%, in 0.9% NaCl in water.
Three groups were created: • mice who received the carrier orally at 10 mL/kg (Group V, n=4), • mice treated with compound 4bc orally at 150 mg/kg and at 10 mL/kg (Group T, n=6), • control mice who received no treatment (n=2). All the mice were treated or received the carrier twice daily for 4 days. On the 5th day, a last treatment was administered and the animals were euthanized between […]. after this last treatment according to the following plan: […]
Detection and quantification, based on peak area, were done by HPLC-MS/MS in MRM mode.

[4] = tested on: dopaminergic fibers in the striatum and dopaminergic neurons in the substantia nigra; assay: neuroprotection in mice lesioned by intranasal MPTP (animal model of Parkinson's disease), TH immunohistochemistry; type: in vivo; details: oral 150 mg/kg twice daily 2 days then 75 mg/kg once daily
Description: The goal of this study is to test by an […] study the neuroprotective activity of compound 4bc administered orally to a mouse after it is poisoned by intranasal administration of MPTP. The food intake and weight of the animals were also compared to a control group. The densitometric analysis of striatal fibers and count of dopaminergic cell bodies in the substantia nigra, after immunohistochemical marking of tyrosine hydroxylase enabled quantifying the neuroprotective effect of the compound.
30 male C57BL\6J mice aged 3 months (supplier: Janvier Breeding Center) were used during this study.
Compound 4bc was administered orally at a dose of 150 mg/kg to 10 mL/kg, twice daily for two days, and then 75 mg/kg once daily. The carrier was composed of 0.5% Tween 80+99.5% carboxymethylcellulose (at 1% in water). A curved rigid tube connected to a 1 mL Terumo syringe was used for administration.
MPTP, a toxin specific for dopaminergic neurons was administered intranasally. One mg (10 μl) of MPTP/HCl (Sigma) dissolved in a 0.9% NaCl solution was delivered per nostril with a 3-minute interval between the two nostrils. […]
To quantify the neuroprotective capacity of compound 4bc, an immunohistochemistry study was done on floating brain slices. Two brain anatomic structures were analyzed: the striatum (20 μm slices, 10 levels) and the substantia nigra (20 μm slices, 7 levels). […]

[5] = per os 150 mg/kg, approximately 1 h 30 min
[6] = per os 150 mg/kg, approximately 2 h
[7] = per os 150 mg/kg, approximately 2 h 25 min
[8] = IP 20 mg/kg at 10 mL/kg, approximately 3 h

## Cc1nc2ccc(N)cc2nc1-c1ccccc1 [Compound 4bc]
[1]; C57BL\6J, mouse, brain extract, oral, per os 150 mg/kg over 5 days, approximately 1 h after last treatment
  concentration at 1 h: 2200 ng/mL
[1]; oral administration
  crossing of the blood-brain barrier in vivo: able to cross the mouse or rat blood-brain barrier
[1]; per os 150 mg/kg over 5 days, approximately 1 h after last treatment
  Brain extract concentration: 2.2 µg/mL
[1]; per os 150 mg/kg, approximately 1 h
  Plasma concentration: 11600 ng/mL
[1]; [5]
  Brain extract concentration: 0.2 µg/mL
  Plasma concentration: 700 ng/mL
[1]; [6]
  Brain extract concentration: 0.1 µg/mL
  Plasma concentration: 40 ng/mL
[1]; [7]
  Brain extract concentration: 0.05 µg/mL
  Plasma concentration: 400 ng/mL
[2]; [8]
  Brain extract concentration: 0.1 µg/mL
  Plasma concentration: 400 ng/mL
[2]; IP 45 mg/kg at 10 mL/kg, approximately 1 h
  Brain extract concentration: 5.1 µg/mL
[3]
  detection in brain samples: undetectable
[4]; intranasal MPTP, Mann-Whitney test
  neuroprotective activity on dopaminergic fibers in vivo (FIGS. 9 and 10): significant neuroprotective activity
[4]; not lesioned
  mild toxicity in animals who received only the compound (T/NL): not significant
